Source: BindingDB's records for doi:10.1016/s0960-894x(01)00475-9 (Glaxosmithkline, 2001)
Peptide text beside a SMILES is read from it.

Assay: Inhibitory activity against Bacterial Tyrosyl tRNA Synthetase

| SMILES | IC50 |
| --- | --- |
| CCOC(=O)[C@H](NC(=O)[C@@H](N)Cc1ccc(O)cc1)[C@@H]1CC[C@H](O)[C@H](O)[C@H]1O [(R)-[(S)-2-Amino-3-(4-hydroxy-phenyl)-propionylamino]-((1S,2S,3S,4S)-2,3,4-trihydroxy-cyclohexyl)-acetic acid ethyl ester] | > 3000 nM |
| CCOC(=O)[C@@H](NC(=O)[C@@H](N)Cc1ccc(O)cc1)[C@@H]1CC[C@H](O)[C@H](O)[C@H]1O [(S)-[(S)-2-Amino-3-(4-hydroxy-phenyl)-propionylamino]-((1S,2S,3S,4S)-2,3,4-trihydroxy-cyclohexyl)-acetic acid ethyl ester] | 245 nM |
| COC(=O)[C@@H](NC(=O)[C@@H](N)Cc1ccc(O)cc1)C1CCCCC1 [(S)-[(S)-2-Amino-3-(4-hydroxy-phenyl)-propionylamino]-cyclohexyl-acetic acid methyl ester] (HELM PEPTIDE1{Y.[O=C([C@@H](N[*:1])C1CCCCC1)[*:2]].[CO[*:1]]}$$$$V2.0) | > 3000 nM |

Compounds with a lower IC50, results first:

| IC50 | SMILES |
| --- | --- |
| 124 nM | CCOC(=O)[C@H](NC(=O)[C@@H](N)Cc1ccc(O)cc1)[C@@H]1C=C[C@H](O)[C@H](O)[C@H]1O [(R)-[(S)-2-Amino-3-(4-hydroxy-phenyl)-propionylamino]-((1S,4S,5S,6S)-4,5,6-trihydroxy-cyclohex-2-enyl)-acetic acid ethyl ester] |
| 3.4 nM | CCOC(=O)[C@@H](NC(=O)[C@@H](N)Cc1ccc(O)cc1)[C@@H]1C=C[C@H](O)[C@H](O)[C@H]1O [(S)-[(S)-2-Amino-3-(4-hydroxy-phenyl)-propionylamino]-((1S,4S,5S,6S)-4,5,6-trihydroxy-cyclohex-2-enyl)-acetic acid ethyl ester] |
